Measurements reported in article PMC6855250 (Nature, 2019).

Molecular target: SidJ (Legionella pneumophila, UniProt Q5ZTK6)
Test: biochemical

SidJ, sequence (Q5ZTK6 whole entry, looked up): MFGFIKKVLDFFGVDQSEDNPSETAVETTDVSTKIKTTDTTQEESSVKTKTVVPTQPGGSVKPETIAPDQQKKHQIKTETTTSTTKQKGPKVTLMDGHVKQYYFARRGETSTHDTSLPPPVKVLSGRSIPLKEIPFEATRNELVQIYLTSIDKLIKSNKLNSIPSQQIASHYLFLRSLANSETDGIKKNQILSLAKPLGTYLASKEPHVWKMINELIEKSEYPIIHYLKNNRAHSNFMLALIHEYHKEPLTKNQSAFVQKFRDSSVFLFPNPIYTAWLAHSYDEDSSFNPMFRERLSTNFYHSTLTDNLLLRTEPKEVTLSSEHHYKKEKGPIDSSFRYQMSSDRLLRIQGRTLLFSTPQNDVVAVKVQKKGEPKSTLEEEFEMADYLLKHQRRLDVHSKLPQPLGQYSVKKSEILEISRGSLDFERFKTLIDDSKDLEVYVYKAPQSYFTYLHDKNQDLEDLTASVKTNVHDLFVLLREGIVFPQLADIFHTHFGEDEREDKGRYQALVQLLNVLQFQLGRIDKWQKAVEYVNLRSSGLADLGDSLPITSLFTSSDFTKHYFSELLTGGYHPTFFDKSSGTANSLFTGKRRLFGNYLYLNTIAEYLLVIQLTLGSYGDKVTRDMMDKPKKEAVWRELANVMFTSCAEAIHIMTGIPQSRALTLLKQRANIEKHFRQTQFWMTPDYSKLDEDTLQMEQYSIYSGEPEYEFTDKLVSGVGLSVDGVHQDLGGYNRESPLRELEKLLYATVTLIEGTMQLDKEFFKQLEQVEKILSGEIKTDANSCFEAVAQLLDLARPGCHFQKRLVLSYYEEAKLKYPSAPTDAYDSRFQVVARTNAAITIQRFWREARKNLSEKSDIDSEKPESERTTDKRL

Nc1ncnc2c1ncn2[C@@H]1O[C@H](COP(=O)(O)OP(=O)(O)OP(=O)(O)O)[C@@H](O)[C@H]1O [ATP]
Kd: 1.45 µM
